Entries after “also recorded” stand apart in the source; their conditions may differ.
What was measured:
mESCs = assay: HP1γ foci formation, fluorescence imaging of mEos3.2; assay type: cell-based, mouse; conditions: +/− LIF 72 h
Procedure: Parental E14 mouse embryonic stem cell (mESC) line was profiled by transcriptome analysis, qPCR and potency assays and was routinely tested for mycoplasma contamination and tested negative. Cells were cultured in DMEM (Gibco) supplemented with 15% standard FCS (Gibco), 0.1 mM non-essential amino acids (Gibco), 1% penicillin/streptomycin, 2 mM L-glutamine (Gibco), 1 mM sodium pyruvate (Gibco), 0.1 mM β-mercaptoethanol (Life Technologies) and 10^6 units/l mLIF (ESGRO, Millipore). E14 cells were stored in incubators at 37 °C in 7.5% CO2 (100% humidity) and maintained in 0.1% gelatin coated 10-cm culture dishes with 1:6 passaging every 2 days. Media was changed on a daily basis. E14 ESCs expressing mouse mEos3.2–HaloTag-HP1 fusion proteins were generated by transfecting appropriate pSB7 plasmids into E14 cells using Lipofectamine 2000 transfection reagent (Invitrogen), followed by selection in 600 µg/ml geneticin (Life Technologies). […]
An IX73 Olympus inverted microscope was used with circularly polarised laser beams aligned and focused at the back aperture of an Olympus 1.40 NA 100 × oil objective (Universal Plan Super Apochromat, 100 × , NA 1.40, UPLSAPO100XO/1.4). […] The fluorescence emission was collected through the same objective and then further filtered using a combination of long-pass and band-pass filters (BLP01-561R and FF01-587/35 for 561 nm excitation). […]

chromatin = assay: single-particle tracking, 500 ms, motion blurring: chromatin residence time; assay type: cell-based, mouse; conditions: for Percentage, Specific / Percentage, Unspecific / Residence time, Specific / Residence time, Unspecific / Residence time, specific binding: 500 ms; for Residence time, specific binding / specific residence time, in words: −LIF 72 h; for Residence time, specific binding: mESCs, mean ± SD (n = 3); for specific residence time, in words: p value left to right = 0.027, 0.036; for unspecific residence time, effect of LIF withdrawal: ns. p value > 0.841
From the text: Although HP1 is a multifunctional protein, its best-characterised function is its ability to specifically bind to H3 tails harbouring H3K9me3. This underpins the establishment of localised, as well as higher-order, chromatin domains. Indeed, binding of structural chromatin proteins, such as HP1, is crucial in establishing heterochromatin during stem cell differentiation. We therefore decided to focus on the chromatin bound fraction of HP1γ. We used a concept called motion blurring in which long exposures are used to blur molecules that are diffusing so they are not detected. Therefore, only molecules bound throughout the long exposure are imaged. We performed SPT at 500 ms time resolution of mESCs expressing either HP1γWT or HP1γR38/9A mutant proteins (−/+ LIF). Movies of representative cells are shown in Additional file 8: Movie S1, Additional file 9: Movie S2, Additional file 10: Movie S3, and Additional file 11: Movie S4.
Parental E14 mouse embryonic stem cell (mESC) line was profiled by transcriptome analysis, qPCR and potency assays and was routinely tested for mycoplasma contamination and tested negative. Cells were cultured in DMEM (Gibco) supplemented with 15% standard FCS (Gibco), 0.1 mM non-essential amino acids (Gibco), 1% penicillin/streptomycin, 2 mM L-glutamine (Gibco), 1 mM sodium pyruvate (Gibco), 0.1 mM β-mercaptoethanol (Life Technologies) and 10^6 units/l mLIF (ESGRO, Millipore). E14 cells were stored in incubators at 37 °C in 7.5% CO2 (100% humidity) and maintained in 0.1% gelatin coated 10-cm culture dishes with 1:6 passaging every 2 days. Media was changed on a daily basis. E14 ESCs expressing mouse mEos3.2–HaloTag-HP1 fusion proteins were generated by transfecting appropriate pSB7 plasmids into E14 cells using Lipofectamine 2000 transfection reagent (Invitrogen), followed by selection in 600 µg/ml geneticin (Life Technologies). After 2 weeks of geneticin selection, cells were sorted using a Sony SH800S cell sorter for the expression of mEos3.2. Differentiation of ESCs was induced by LIF withdrawal. ESCs cultured in complete ES cell media (+ LIF) were trypsinised and washed twice in 1x PBS to remove residual LIF, seeded into ES cell media without LIF and incubated for 24, 48 or 72 h.
An IX73 Olympus inverted microscope was used with circularly polarised laser beams aligned and focused at the back aperture of an Olympus 1.40 NA 100 × oil objective (Universal Plan Super Apochromat, 100 × , NA 1.40, UPLSAPO100XO/1.4). Continuous wavelength diode laser light sources used include a 561-nm (Cobolt, Jive 200, 200 mW) and a 405-nm laser (Stradus, Toptica, 405–100, 100 mW). Oblique angle illumination was achieved by aligning the laser off axis such that the emergent beam at the sample interface was near-collimated and incident at an angle slightly less than the critical angle θc ~ 67° for a glass/water interface. This generated a ~ 50 μm diameter excitation footprint. The power of the collimated beams at the back aperture of the microscope was 10 kW/cm^2 and 10–100 W/cm^2 for the 561-nm and 405-nm laser beams, respectively. The lasers were reflected by dichroic mirrors (Semrock, Di01-R405/488/561/635). The fluorescence emission was collected through the same objective and then further filtered using a combination of long-pass and band-pass filters (BLP01-561R and FF01-587/35 for 561 nm excitation). The emission signal was projected onto an EMCCD (Photometrics, Evolve 512 Delta) with an electron multiplication gain of 250 ADU/photon operating in a frame transfer mode.
mESCs expressing mEos3.2–HaloTag-tagged HP1γ were passaged 2 days before imaging onto 35-mm glass bottom dishes No 1.0 (MatTek Corporation P35G-1.0-14-C Case) in phenol red-free serum and LIF conditions, if not stated otherwise. […]

H3K9me3(1–16) peptides = assay: bio-layer interferometry (BLI); assay type: binding; conditions: 20 mM Hepes KOH pH 7.2, 70 mM KCl; GST fusion; association 120 s, dissociation 120 s; WT 28.0 μM, R38/9K 25.5 μM, R38/9A 28.3 μM and lower concentrations
Procedure: Recombinant mouse full-length HP1 wildtype and mutant proteins were expressed in (as GST fusion proteins), and purified from, Escherichia coli as described. Proteins were concentrated using Amicon Ultra centrifugation filters with a 30 kDa cutoff (Millipore), washed into binding buffer (20 mM Hepes KOH pH 7.2, 70 mM KCl, 1 mM DTT, 0.1% Tween-20, 5% glycerol). Protein concentrations were determined by Bradford protein assay against a BSA standard, and purity was verified by SDS-PAGE followed by Coomassie-blue staining. Real-time binding assays of GST-HP1γ were performed using the BLItz® system (ForteBio) in binding buffer (+ 0.1% BSA). Biotinylated H3(1–16) peptides (NH2-[…](me3)STGGKAP-Biotin) were immobilised to Dip and Read High Precision Streptavidin (SAX) Biosensors (ForteBio), and kinetics for a range of protein concentrations were measured under advanced kinetics settings (1. initial baseline measuring buffer only: 30 s, 2. loading of peptides onto sensors: 120 s, 3. effective baseline measurement: 30 s, 4. association of GST-HP1γ proteins: 120 s, 5. dissociation of GST-HP1γ proteins: 120 s). The data were normalised to the effective baseline signal by subtracting the average baseline value (150–180 s) from each data point (150–420 s). […] Raw data are summarised in Additional file 3: Table S1.

| Substance | foci formation, WT- versus R38/9A-expressing cells (mESCs) | Percentage, Specific (chromatin; +LIF, replicate i) | Percentage, Unspecific (chromatin; +LIF, replicate i) | Residence time, Specific (chromatin; +LIF, replicate i) | Residence time, Unspecific (chromatin; +LIF, replicate i) | Percentage, Specific (chromatin; +LIF, replicate ii) | Percentage, Unspecific (chromatin; +LIF, replicate ii) | Residence time, Specific (chromatin; +LIF, replicate ii) | Residence time, Unspecific (chromatin; +LIF, replicate ii) | Percentage, Specific (chromatin; +LIF, replicate iii) | Percentage, Unspecific (chromatin; +LIF, replicate iii) | Residence time, Specific (chromatin; +LIF, replicate iii) | Residence time, Unspecific (chromatin; +LIF, replicate iii) | Residence time, specific binding (chromatin) | specific residence time, in words (chromatin) | unspecific residence time, effect of LIF withdrawal (chromatin; −LIF 72 h versus +LIF) | Percentage, Specific (chromatin; −LIF, replicate i) | Percentage, Unspecific (chromatin; −LIF, replicate i) | Residence time, Specific (chromatin; −LIF, replicate i) | Residence time, Unspecific (chromatin; −LIF, replicate i) | other results |
| --- | --- | --- | --- | --- | --- | --- | --- | --- | --- | --- | --- | --- | --- | --- | --- | --- | --- | --- | --- | --- | --- |
| HP1γR38/9A: HP1γ with alanine substitutions at amino acids 38 and 39 to mimic citrullination | no apparent difference | 89.000% | 11.000% | 26.000 s | 4.100 s | 90.900% | 9.100% | 17.900 s | 2.100 s | 82.500% | 17.500% | 17.400 s | 1.300 s | 29.5 ± 4.1 s | significantly lower than for HP1γWT molecules | no effect | 83.000% | 17.000% | 34.000 s | 4.900 s | specific residence time, in words (chromatin; listed as R38/9A mutant HP1γ): considerably shorter; Percentage, Specific (chromatin; −LIF, replicate ii): 90.800%; Percentage, Unspecific (chromatin; −LIF, replicate ii): 9.200%; Residence time, Specific (chromatin; −LIF, replicate ii): 28.500 s; Residence time, Unspecific (chromatin; −LIF, replicate ii): 1.700 s; Percentage, Specific (chromatin; −LIF, replicate iii): 88.200%; Percentage, Unspecific (chromatin; −LIF, replicate iii): 11.800%; Residence time, Specific (chromatin; −LIF, replicate iii): 25.900 s; Residence time, Unspecific (chromatin; −LIF, replicate iii): 1.800 s; BLI binding, in words (H3K9me3(1–16) peptides): begin to plateau at significantly lower amounts compared to the WT protein; also recorded: distinctly different kinetic behaviour compared to the WT protein |
| HP1γWT: full-length mouse HP1γ wild type, as GST or mEos3.2–HaloTag fusion protein | no apparent difference | 91.000% | 9.000% | 36.000 s | 4.400 s | 93.400% | 6.600% | 27.527 s | 1.549 s | 87.000% | 13.000% | 22.800 s | 1.500 s | 49.2 ± 12.3 s | significantly increased | no effect | 88.000% | 12.000% | 55.000 s | 6.000 s | increase of specific residence time upon differentiation (chromatin; −LIF 72 h versus +LIF): 20 s; Percentage, Specific (chromatin; −LIF, replicate ii): 93.500%; Percentage, Unspecific (chromatin; −LIF, replicate ii): 6.500%; Residence time, Specific (chromatin; −LIF, replicate ii): 57.488 s; Residence time, Unspecific (chromatin; −LIF, replicate ii): 1.811 s; Percentage, Specific (chromatin; −LIF, replicate iii): 88.000%; Percentage, Unspecific (chromatin; −LIF, replicate iii): 12.000%; Residence time, Specific (chromatin; −LIF, replicate iii): 35.000 s; Residence time, Unspecific (chromatin; −LIF, replicate iii): 2.300 s; BLI binding, in words (H3K9me3(1–16) peptides): binds exclusively to H3K9me3 peptides |

Reference: publication PMC6444592, “Citrullination of HP1γ chromodomain affects association with chromatin” (Epigenetics & Chromatin, 2019)
